Test results as given in US10030016B2 (Sunesis Pharmaceuticals, Inc., priority 2009, dated 2018).
Structures can show the parent of a compound that is named as a salt. Where two headings read alike, the source gives them in different places.

Assays:
PDK1 = PDK1 (Homo sapiens (Human), UniProt O15530); test: PDK1 kinase assay (coupled PDK1/AKT/FAM-crosstide assay, IMAP fluorescence polarization); type: biochemical
How it was run: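 GST-tagged human PDK1 (aa 51-359, 0.75 nM) from insect cells activated unphosphorylated GST-AKT2 (aa 140-467–PIFtide fusion, 10 nM), which phosphorylated 100 nM FAM-crosstide; 40 μM ATP, pH 7.2 Tris/MgCl2, 30 min at 25° C. IMAP fluorescence polarization read-out; ΔmP versus compound concentration fitted with a 4-parameter curve.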

[1] = tested on: phospho-akt (Thr308) in PC-3 cells; test: Inhibition of phospho-akt (Thr308) in PC-3 cells, MSD phospho-akt 308 ELISA kit; type: cell-based; conditions: Homo sapiens, 2 hours, no serum, read-out: EC50
How it was run: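 PC-3 cells were seeded overnight in growth medium with 10% FBS, then exposed to compound serially diluted threefold in serum-free medium for 2 hours. Lysates were captured overnight at 4 degrees on MSD plates and phospho-Akt Thr308 was detected electrochemiluminescently, against DMSO high and 5 μM wortmannin low controls.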

[2] = inhibition of P308 Akt in PC-3 cells using MSD
[3] = inhibition of phospo-PDK1 in vitro
[4] = inhibition of P308 Akt in PC-3 cells, MSD
[5] = PC-3, 2 h, inhibition of P308 Akt in PC-3 cells, MSD

Chain of PDK1 (O15530 51-359): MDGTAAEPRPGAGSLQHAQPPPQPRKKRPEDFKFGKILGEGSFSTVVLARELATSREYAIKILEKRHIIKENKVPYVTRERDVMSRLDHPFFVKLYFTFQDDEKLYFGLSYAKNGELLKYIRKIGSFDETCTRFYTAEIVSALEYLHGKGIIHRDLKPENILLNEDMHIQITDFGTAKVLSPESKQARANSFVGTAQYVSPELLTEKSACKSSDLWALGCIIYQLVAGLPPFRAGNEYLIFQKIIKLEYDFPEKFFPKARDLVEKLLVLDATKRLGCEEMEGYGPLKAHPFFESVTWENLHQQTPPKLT

| IC50 (PDK1; inhibition of PDK1 in vitro) [nM] | EC50 [1, 2] [nM] | IC50 (PDK1; [3]) [nM] | EC50 [1, 4] [nM] | EC50 [1, 5] [nM] | SMILES |
| --- | --- | --- | --- | --- | --- |
| < 100 | < 1000 |  |  |  | C[C@H](NC(=O)c1cc(C#N)cnc1NCc1ccc(-c2cnc3[nH]nc(CCCN)c3c2)cc1)c1ccc(F)cc1 [Example 150] |
|  |  | < 100 | < 1000 |  | O=C1Nc2cc(/C=C/CNc3ncccc3C(=O)NCc3ccc(F)c(F)c3)ccc2/C1=C/c1cnc[nH]1 [Example 15.1, 2-((E)-3-((Z)-3-((1H-imidazol-5-yl)methylene)-2-oxoindolin-6-yl)allylamino)-N-(3,4-difluorobenzyl)nicotinamide] |
| < 100 | 1000 to 10000 |  |  |  | Nc1n[nH]c2ncc(-c3ccc(CNc4ncc(C(F)(F)F)cc4C(=O)NCCC4CC4)cc3)cc12 [Example 269, 2-(4-(3-amino-1H-pyrazolo [3,4-b]pyridin-5-yl)benzylamino)-N-(2-cyclopropylethyl)-5-(trifluoromethyl) nicotinamide] |
| < 100 | 1000 to 10000 |  |  |  | Nc1n[nH]c2ncc(-c3ccc(CNc4ncc(C(F)(F)F)cc4C(=O)NC4CCC4)cc3)cc12 [Example 299, 2-(4-(3-amino-1H-pyrazolo [3,4-b]pyridin-5-yl)benzylamino)-N-cyclobutyl-5-(trifluoromethyl)nicotinamide] |
|  |  | < 100 | < 1000 |  | C[C@H](NC(=O)c1nccnc1NCc1ccc(-c2ccc3ncnc(N)c3c2)s1)c1ccc(F)c(F)c1 [Example 3.77, 3-({[5-(4-aminoquinazolin-6-yl)thiophen-2-yl]methyl}amino)-N-[(1S)-1-(3,4-difluorophenyl)ethyl] pyrazine-2-carboxamide (TFA salt)] |
| < 100 | 1000 to 10000 |  |  |  | C[C@H](NC(=O)c1nc(C#N)cnc1NCc1ccc(-c2cnc(N)c(O[C@@H]3CCC[C@H]3N)n2)cc1)c1ccc(F)c(F)c1 [Example 172, 3-{4-[5-Amino-6-((1R,2R)-2-amino-cyclopentyloxy)-pyrazin-2-yl]-benzylamino}-6-cyano-pyrazine-2-carboxylic acid [(S)-1-(3,4-difluoro-phenyl)-ethyl]-amide] |
| < 100 | 1000 to 10000 |  |  |  | Cc1nc2[nH]nc(N)c2cc1-c1ccc(CNc2ncc(C#N)nc2C(=O)N[C@@H](C)c2ccc(F)c(F)c2)cc1 [Example 400, (S)-3-(4-(3-amino-6-methyl-1H-pyrazolo[3,4-b]pyridin-5-yl)benzylamino)-6-cyano-N-(1-(3,4-difluorophenyl)ethyl)pyrazine-2-carboxamide] |
| < 100 | 1000 to 10000 |  |  |  | Nc1ncc(-c2ccc(CNc3ncc(C(F)(F)F)cc3C(=O)Nc3ccc(F)cc3)cc2)nc1O[C@H]1CCC[C@@H]1N [Example 170, 2-{4-[5-Amino-6-((1S,2S)-2-amino-cyclopentyloxy)-pyrazin-2-yl]-benzylamino}-N-(4-fluoro-phenyl)-5-trifluoromethyl-nicotinamide] |
| < 100 | < 1000 |  |  |  | O=C(NCc1ccc(F)c(F)c1)c1cc(C(F)(F)F)cnc1NCc1ccc(-c2cnc3[nH]c(=O)[nH]c3c2)cc1 [Example 123, N-(3,4-difluorobenzyl)-2-(4-(2-oxo-2,3-dihydro-1H-imidazo[4,5-b]pyridin-6-yl)benzylamino)-5-(trifluoromethyl) nicotinamide] |
| < 100 | < 1000 |  |  |  | C[C@H](NC(=O)c1cc(C#N)cnc1NCc1ccc(-c2cnc(N)c(CCCCN)n2)cc1)c1ccc(F)cc1 [Example 71, 2-{4-[5-Amino-6-(4-amino-butyl)-pyrazin-2-yl]-benzyl-amino}-5-cyano-N-[(S)-1-(4-fluoro-phenyl)-ethyl]-nicotinamide] |
| < 100 | < 1000 |  |  |  | C[C@H](NC(=O)c1nc(C#N)cnc1N[C@H](C)c1ccc(-c2cnc3[nH]nc(N)c3c2)cc1)c1ccc(F)c(F)c1 [Example 42, 3-((R)-1-(4-(3-amino-1H-pyrazolo[3,4-b]pyridin-5-yl)phenyl)ethylamino)-6-cyano-N—((S)-1-(3,4-difluorophenyl)ethyl)pyrazine-2-carboxamide] |
| 1000 to 5000 | > 10000 |  |  |  | C[C@H](NC(=O)c1cc(C#N)cnc1NCC1CCN(c2cnc(N)cn2)CC1)c1ccc(F)cc1 [Example 61, (S)-2-(((1-(5-aminopyrazin-2-yl)piperidin-4-yl)methyl)amino)-5-cyano-N-(1-(4-fluorophenyl)ethyl)nicotinamide] |
| > 5000 | > 10000 |  |  |  | C[C@H](NC(=O)c1cc(C#N)cnc1NCc1ccc(-c2ccc(NCCN3CCOCC3)nc2)cc1)c1ccc(F)cc1 [Example 223, 5-Cyano-N-[(S)-1-(4-fluoro-phenyl)-ethyl]-2-{4-[6-(2-morpholin-4-yl-ethylamino)-pyridin-3-yl]-benzylamino}-nicotinamide] |
|  |  | 100 to 1000 |  | < 1000 | C[C@@H](c1ccc(F)c(F)c1)n1cnc2ccnc(NCc3ccc(-c4cc5c(N)ncnc5cn4)s3)c2c1=O [Example 7.11, 5-({[5-(4-aminopyrido [3,4-d]pyrimidin-6-yl)thiophen-2-yl]methyl}amino)-3-[(1S)-1-(3,4-difluorophenyl)ethyl] pyrido[4,3-d]pyrimidin-4(3H)-one] |
| < 100 | < 1000 |  |  |  | Nc1n[nH]c2ncc(-c3ccc(CNc4ncc(C(F)(F)F)cc4C(=O)Nc4ccc(F)cc4F)cc3)cc12 [Example 291, 2-(4-(3-amino-1H-pyrazolo [3,4-b]pyridin-5-yl)benzylamino)-N-(2,4-difluorophenyl)-5-(trifluoromethyl)nicotinamide] |
|  |  | 100 to 1000 | 1000 to 10000 |  | Nc1ncnc2ccc(-c3ccc(CNc4nc5c(cc4C(=O)NCc4ccc(F)c(F)c4)CCC5)s3)cc12 [Ex. 8.15.1, 2-({[5-(4-aminoquinazolin-6-yl)thiophen-2-yl]methyl}amino)-N-(3,4-difluorobenzyl)-6,7-dihydro-5H-cyclopenta [b]pyridine-3-carboxamide] |
| < 100 | 1000 to 10000 |  |  |  | COCCn1cc(-c2ccc(CNc3ncc(C(F)(F)F)cc3C(=O)Nc3ccc(F)cc3)cc2)c2c(N)ncnc21 [Example 431] |
|  |  | < 100 | > 10000 |  | CC(C)Oc1cc(CNc2ncccc2C(=O)NCc2ccc(F)c(F)c2)cc(-c2ccc3ncnc(NC4CC4)c3c2)c1 [Example 5.5, 2-(3-(4-(cyclopropylamino)quinazolin-6-yl)-5-isopropoxy-benzylamino)-N-(3,4-difluorobenzyl)nicotinamide] |
| > 5000 | 1000 to 10000 |  |  |  | CNc1ncc2cc(O[C@H](C)CNc3ncc(C#N)cc3C(=O)N[C@@H](C)c3ccc(F)cc3)ccc2n1 [Example 251, 5-cyano-N-((S)-1-(4-fluorophenyl)ethyl)-2-((R)-2-(2-(methylamino)quinazolin-6-yloxy)propylamino)nicotinamide] |
|  |  | < 100 | > 10000 |  | Nc1ncnc2ccc(-c3ccc(CNc4nccnc4C(=O)NCc4ccc(F)cc4F)s3)cc12 [Example 3.75, 3-({[5-(4-aminoquinazolin-6-yl)thiophen-2-yl]methyl}amino)-N-(2,4-difluorobenzyl)pyrazine-2-carboxamide (TFA salt)] |
|  |  | 100 to 1000 |  | < 1000 | CCS(=O)(=O)Nc1cnc(NCc2ccc(-c3ccc4ncnc(N)c4c3)s2)c(C(=O)NCc2ccc(F)c(F)c2)c1 [Example 8.6.2, 2-({[5-(4-aminoquinazolin-6-yl)thiophen-2-yl]methyl}amino)-N-(3,4-difluorobenzyl)-5-[(ethylsulfonyl)amino] pyridine-3-carboxamide] |
| < 100 | 1000 to 10000 |  |  |  | Nc1ccc(-c2ccc(CNc3nccc4ncn(Cc5ccc(F)c(F)c5)c(=O)c34)cc2)cn1 [Example 374, 5-(4-(6-aminopyridin-3-yl)benzylamino)-3-(3,4-difluorobenzyl)pyrido[4,3-d] pyrimidin-4(3H)-one] |
|  |  | 100 to 1000 | 1000 to 10000 |  | Nc1ncnc2ccc(-c3ccc(CNc4ncccc4C(=O)Nc4cc(F)c(F)c(F)c4)s3)cc12 [Example 3.40, 2-({[5-(4-aminoquinazolin-6-yl)thiophen-2-yl]methyl}amino)-N-(3,4,5-trifluorophenyl) pyridine-3-carboxamide (TFA salt)] |
|  |  | > 5000 | > 10000 |  | Nc1ncnc2ccc(-c3ccc(CNc4ncccc4C(=O)Nc4cccc5cccnc45)s3)cc12 [Example 3.32, 2-({[5-(4-aminoquinazolin-6-yl)thiophen-2-yl]methyl}amino)-N-(quinolin-8-yl)pyridine-3-carboxamide (TFA salt)] |
|  |  | < 100 | < 1000 |  | N#Cc1cnc(NCc2ccc(-c3cnc4[nH]nc(N)c4c3)cc2)c(C(=O)Nc2ccc(F)cc2)c1 [Example 35, 2-(4-(3-amino-1H-pyrazolo[3,4-b]pyridin-5-yl)benzylamino)-5-cyano-N-(4-fluorophenyl) nicotinamide] |
| 100 to 1000 | 1000 to 10000 |  |  |  | Nc1ncnn2c(-c3ccc(CNc4ncc(C(F)(F)F)cc4C(=O)NCc4ccc(F)c(F)c4)cc3)ccc12 [Example 179, 2-[4-(4-Amino-pyrrolo [2,1-f][1,2,4]triazin-7-yl)-benzylamino]-N-(3,4-difluoro-benzyl)-5-trifluoromethyl-nicotinamide] |
| < 100 | < 1000 |  |  |  | Nc1n[nH]c2ncc(-c3ccc(CNc4ncc(C(F)(F)F)cc4C(=O)NCc4ccc(F)c(Cl)c4)cc3)cc12 [Example 286] |
| < 100 | < 1000 |  |  |  | Nc1n[nH]c2ncc(-c3ccc(CNc4ncc(C(F)(F)F)cc4C(=O)Nc4ccc(Cl)cc4)cc3)cc12 [Example 304, 2-(4-(3-amino-1H-pyrazolo [3,4-b]pyridin-5-yl)benzylamino)-N-(4-chlorophenyl)-5-(trifluoromethyl)nicotinamide] |
